Source: US6069177A, “3-Hydroxy-propanamine derived neuronal reuptake inhibitors” (priority 1997, dated 2000)
Entries after “also recorded” stand apart in the source; their conditions may differ. Where two headings read alike, the source gives them in different places.

How the values were obtained:
[1] = target: human norepinephrine transporter (hNET) (Homo sapiens, UniProt P23975); type: binding
[2] = target: T1, DA reuptake into rat brain synaptosomes (Rattus norvegicus, UniProt P23977); test: DA reuptake inhibition in rat brain synaptosomes; type: biochemical, rat (male Sprague-Dawley), striatal tissue; settings: for DA (Rat) Reuptake Inhibition Potency: Ki (DA)/Ki (compound or drug), Prozac to Serzone derived from literature Ki
T1 construct: A crude synaptosomal (P2) fraction was prepared; tissue Harlan Sprague-Dawley (animals); host or cells: rat striatum, crude synaptosomal (P2) fraction
T1 sequence (P23977 whole entry): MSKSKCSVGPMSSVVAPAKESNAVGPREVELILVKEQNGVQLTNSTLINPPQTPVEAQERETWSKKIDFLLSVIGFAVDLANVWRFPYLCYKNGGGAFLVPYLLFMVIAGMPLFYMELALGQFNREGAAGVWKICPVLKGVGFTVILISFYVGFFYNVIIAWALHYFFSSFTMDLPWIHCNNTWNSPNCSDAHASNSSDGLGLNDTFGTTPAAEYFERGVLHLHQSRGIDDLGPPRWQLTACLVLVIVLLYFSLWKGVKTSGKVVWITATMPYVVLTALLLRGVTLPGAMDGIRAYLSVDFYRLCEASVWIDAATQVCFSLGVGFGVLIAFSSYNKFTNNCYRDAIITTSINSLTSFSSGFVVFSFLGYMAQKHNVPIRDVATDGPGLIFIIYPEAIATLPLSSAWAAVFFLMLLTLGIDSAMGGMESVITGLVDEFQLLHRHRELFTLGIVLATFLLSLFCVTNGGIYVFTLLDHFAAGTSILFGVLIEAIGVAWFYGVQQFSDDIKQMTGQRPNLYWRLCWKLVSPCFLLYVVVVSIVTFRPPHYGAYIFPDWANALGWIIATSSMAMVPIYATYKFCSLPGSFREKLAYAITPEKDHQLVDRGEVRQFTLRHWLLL

[3] = target: T2, human dopamine transporter (hDAT) (Homo sapiens, UniProt Q01959); test: [3H]WIN35428 binding to cloned human DAT; settings: Kd (DA)/Kd (compound or drug) in the hDAT binding assay
T2 construct: expressed in transfected cells; membranes of cells expressing the cloned hDAT
T2 sequence (Q01959 whole entry): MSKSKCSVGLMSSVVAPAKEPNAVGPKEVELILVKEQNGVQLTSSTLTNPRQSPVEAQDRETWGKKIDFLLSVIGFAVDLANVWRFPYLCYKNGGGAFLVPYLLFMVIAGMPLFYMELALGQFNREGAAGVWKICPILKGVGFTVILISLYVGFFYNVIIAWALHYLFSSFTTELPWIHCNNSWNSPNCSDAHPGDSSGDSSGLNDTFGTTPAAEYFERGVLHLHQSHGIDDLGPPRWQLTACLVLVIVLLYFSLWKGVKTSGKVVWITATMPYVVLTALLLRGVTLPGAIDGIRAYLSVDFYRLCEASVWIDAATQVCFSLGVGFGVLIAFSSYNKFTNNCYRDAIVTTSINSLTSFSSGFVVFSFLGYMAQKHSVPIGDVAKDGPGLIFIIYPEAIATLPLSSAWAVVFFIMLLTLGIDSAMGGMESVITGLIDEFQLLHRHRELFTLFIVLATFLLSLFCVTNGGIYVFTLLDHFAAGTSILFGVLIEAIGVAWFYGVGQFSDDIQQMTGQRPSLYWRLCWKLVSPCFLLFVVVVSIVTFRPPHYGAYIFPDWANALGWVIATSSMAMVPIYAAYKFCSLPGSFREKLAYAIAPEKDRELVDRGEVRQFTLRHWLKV
Description: (§1) These transporters are responsible for neuronal reuptake of the neurotransmitters.
(§2) Cells were incubated in 10% CO2, 90% air at 37° C. and 100% humidity. The selecting antibiotic geneticin sulfate (250 μg/ml) was used during the cell culture for the hNET only.
(§3) For the preparation of homogenates, medium was removed by aspiration. […] Cells were then scraped from the surface with a rubber spatula into a centrifuge tube and collected by centrifugation at 1000×g for 5 min at 4° C. Supernatants were decanted and the pellet was resuspended in the appropriate binding buffer and homogenized with the use of a Polytron for 10 sec at setting 6. This solution was centrifuged at about 36,000×g for 10 minutes (4° C.). The pellet was suspended in the same volume of buffer and the centrifugation was repeated. The supernatants were decanted and the final pellet was suspended in the appropriate buffer and stored at -80° C. until use.
(§4) For the membranal preparation, cells were homogenized in the 50 mM Tris-HCl with 120 mM NaCl (pH 7.4). […] The reaction mixture was incubated at 4° C. for 2 hr. The remaining methods were exactly as described for hSERT above.
(§5) The program was modified by the inventors to calculate the Hill Coefficient (nH). […] One-component models and two-component models were compared using the root mean square error of each fit and the F test.

[4] = test system: 5-HT, NE and DA reuptake into rat brain synaptosomes; type: biochemical, rat (male Sprague-Dawley); settings: for block uptake of all three neurotransmitters (5-HT, NE, and DA), Ki in words: rat brain synaptosomes
Description: (§6) Briefly, the tissue was homogenized in 20 volumes of ice-cold 0.32 M sucrose containing 11 mM glucose, pH 7.4 in a glass Potter-Elvehjemhomogenizer with teflon pestle (8 strokes, 900 rpm). The homogenate was centrifuged at 1,000 g for 10 minutes. The resulting supernatant was then centrifuged at 20,000 g for 20 minutes and the supernatent was discarded.
(§7) Briefly, synaptosomal protein (1.0-2.5 mg) was suspended in a total volume of 1 mL containing oxygenated incubation buffer, 10 μM pargyline to inhibit monoamine oxidase activity, 0.2 mg/mL sodium ascorbate and varying concentrations of other compounds or drugs as indicated in the text. […] After a 5 minute preincubation at 37° C. in a shaking water bath (80 oscillations/minute), the uptake was initiated by the addition of […]. The reaction was stopped after 5 minute by adding 4 mL ice-cold 0.9% (w/v) sodium chloride and rapidly filtered through a Whatman GF/B glass fiber filter in a 48-place Brandel cell harvester. The filter was then washed with an additional 8 mL of wash buffer, placed in a scintillation vial containing 5 mL of Redi-Safe (Beckman Instruments, Fullerton, Calif.) and counted. Specific uptake was calculated as the difference between the total uptake (zero unlabelled ligand) and nonspecific uptake (excess unlabelled ligand).

[5] = target: T3, NE reuptake into rat brain synaptosomes (Rattus norvegicus, UniProt Q63380); test: biochemical; set-up: species or system rat (male Sprague-Dawley), hippocampal tissue
T3 construct: A crude synaptosomal (P2) fraction was prepared; tissue Harlan Sprague-Dawley (animals); host or cells: rat hippocampus, crude synaptosomal (P2) fraction
T3 sequence (Q63380 1-617): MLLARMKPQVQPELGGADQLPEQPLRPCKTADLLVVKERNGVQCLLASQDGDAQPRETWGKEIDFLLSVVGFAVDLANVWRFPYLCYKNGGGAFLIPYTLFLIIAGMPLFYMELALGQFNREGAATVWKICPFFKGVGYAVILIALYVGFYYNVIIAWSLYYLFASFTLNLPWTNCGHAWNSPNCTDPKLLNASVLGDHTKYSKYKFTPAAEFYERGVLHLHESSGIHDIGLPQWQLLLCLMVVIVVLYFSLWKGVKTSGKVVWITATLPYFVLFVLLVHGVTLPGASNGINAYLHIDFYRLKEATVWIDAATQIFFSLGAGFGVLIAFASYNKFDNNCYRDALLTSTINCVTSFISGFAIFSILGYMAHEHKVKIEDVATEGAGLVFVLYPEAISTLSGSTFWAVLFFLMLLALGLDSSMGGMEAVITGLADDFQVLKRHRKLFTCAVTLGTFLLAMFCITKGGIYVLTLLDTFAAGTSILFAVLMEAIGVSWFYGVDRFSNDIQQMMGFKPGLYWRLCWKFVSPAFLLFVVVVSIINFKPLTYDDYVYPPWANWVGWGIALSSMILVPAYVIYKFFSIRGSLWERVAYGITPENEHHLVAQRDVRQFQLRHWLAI

[6] = target: T4, 5-HT reuptake into rat brain synaptosomes (Rattus norvegicus, UniProt P31652); test: 5-HT reuptake inhibition in rat brain synaptosomes; type: biochemical, rat (male Sprague-Dawley), cortical tissue; settings: Ki (5-HT)/Ki (compound or drug); Prozac to Serzone derived from literature Ki
T4 construct: A crude synaptosomal (P2) fraction was prepared; tissue Harlan Sprague-Dawley (animals); host or cells: rat cerebral cortex, crude synaptosomal (P2) fraction
T4 sequence (P31652 whole entry): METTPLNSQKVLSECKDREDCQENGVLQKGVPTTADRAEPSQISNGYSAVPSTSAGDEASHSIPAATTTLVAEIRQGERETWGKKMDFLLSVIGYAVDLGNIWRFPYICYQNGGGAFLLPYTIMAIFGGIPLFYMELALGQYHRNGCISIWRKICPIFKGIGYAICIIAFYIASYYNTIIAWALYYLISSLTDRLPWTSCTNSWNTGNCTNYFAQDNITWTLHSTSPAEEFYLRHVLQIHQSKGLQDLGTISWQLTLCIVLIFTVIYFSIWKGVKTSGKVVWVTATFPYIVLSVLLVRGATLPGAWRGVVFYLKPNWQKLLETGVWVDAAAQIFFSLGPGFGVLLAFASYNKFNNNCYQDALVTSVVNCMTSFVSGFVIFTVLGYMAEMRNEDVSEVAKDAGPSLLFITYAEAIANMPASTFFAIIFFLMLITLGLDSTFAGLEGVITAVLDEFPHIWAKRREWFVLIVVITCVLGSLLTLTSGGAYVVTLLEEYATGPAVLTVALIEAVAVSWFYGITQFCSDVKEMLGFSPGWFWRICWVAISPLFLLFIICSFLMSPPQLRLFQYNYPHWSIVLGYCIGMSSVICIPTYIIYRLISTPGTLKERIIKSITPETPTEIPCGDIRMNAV
Description: as §6, §7

hSERT, hNET, and hDAT = test: Simultaneous binding to cloned human transporters hSERT, hNET and hDAT; settings: for Simultaneous Transporter Binding Potency: Table 4, each of the potency values greater than 7.0; for Simultaneous Transporter Binding Potency (Human): Table 5, comparison of rat and human data; for simultaneous transporter binding potency, in words: human, each value ≥7.0
Description: as §1, §2, §3
(§8) For the membranal preparation, cells were homogenized in 50 mM Tris-HCl with 120 mM NaCl and 5 mM KC1 (pH 7.4). […] The reaction mixture was incubated at 22° C. for 30 min. The assay was terminated by rapid filtration of the contents of each tube through a GF/B filter strip, which had been pretreated with 0.2% polyethylenimine, with the use of a 48-well Brandel cell harvester. The filter strips were then rinsed five times with ice-cold 0.9% NaCl. Next, individual filters were cut from the strip and placed in a scintillation vial containing 6.5 mL of Redi-Safe (Beckman Instruments, Fullerton, Calif.). Radioactivity was measured with a Beckman liquid scintillation counter (LS 5000TD).
For the membranal preparation, cells were homogenized in 50 mM Tris-HCl with 300 mM NaCl and 5 mM KCl (pH 7.4). […] The reaction mixture was incubated at 22° C. for 60 min. The remaining methods were exactly as described for hSERT above.
as §4, §5

[7] = target: T5, human serotonin transporter (hSERT) (Homo sapiens, UniProt P31645); type: binding
T5 construct: expressed in transfected cells; membranes of cells expressing the cloned hSERT
T5 sequence (P31645 whole entry): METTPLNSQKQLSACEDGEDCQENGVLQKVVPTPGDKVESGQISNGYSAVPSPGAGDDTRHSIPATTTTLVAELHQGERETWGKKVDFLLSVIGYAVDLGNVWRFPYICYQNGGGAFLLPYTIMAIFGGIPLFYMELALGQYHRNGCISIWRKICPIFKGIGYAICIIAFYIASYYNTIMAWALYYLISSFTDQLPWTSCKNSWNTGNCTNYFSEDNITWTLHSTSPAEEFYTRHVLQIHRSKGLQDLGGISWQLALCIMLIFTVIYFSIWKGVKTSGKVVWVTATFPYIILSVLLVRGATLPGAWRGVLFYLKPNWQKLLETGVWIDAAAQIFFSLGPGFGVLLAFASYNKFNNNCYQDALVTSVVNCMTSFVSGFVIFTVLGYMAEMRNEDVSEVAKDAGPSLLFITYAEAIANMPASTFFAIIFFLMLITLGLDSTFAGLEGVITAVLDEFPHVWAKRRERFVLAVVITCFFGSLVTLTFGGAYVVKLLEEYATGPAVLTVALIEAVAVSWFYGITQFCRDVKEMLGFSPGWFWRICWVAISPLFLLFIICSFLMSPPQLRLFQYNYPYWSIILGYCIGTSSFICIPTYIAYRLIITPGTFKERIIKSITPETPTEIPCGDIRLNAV
Description: as §1, §2, §3, §8, §5

[8] = target: T3, NE reuptake into rat brain synaptosomes; settings: cited from earlier work
[9] = Kd (NE)/Kd (compound or drug) in the hNET binding assay
[10] = Table 5, comparison of rat and human data
[11] = Ki (NE)/Ki (compound or drug), Prozac to Serzone derived from literature Ki
[12] = Kd (5-HT)/Kd (compound or drug) in the hSERT binding assay

human norepinephrine transporter (hNET), sequence (P23975 whole entry): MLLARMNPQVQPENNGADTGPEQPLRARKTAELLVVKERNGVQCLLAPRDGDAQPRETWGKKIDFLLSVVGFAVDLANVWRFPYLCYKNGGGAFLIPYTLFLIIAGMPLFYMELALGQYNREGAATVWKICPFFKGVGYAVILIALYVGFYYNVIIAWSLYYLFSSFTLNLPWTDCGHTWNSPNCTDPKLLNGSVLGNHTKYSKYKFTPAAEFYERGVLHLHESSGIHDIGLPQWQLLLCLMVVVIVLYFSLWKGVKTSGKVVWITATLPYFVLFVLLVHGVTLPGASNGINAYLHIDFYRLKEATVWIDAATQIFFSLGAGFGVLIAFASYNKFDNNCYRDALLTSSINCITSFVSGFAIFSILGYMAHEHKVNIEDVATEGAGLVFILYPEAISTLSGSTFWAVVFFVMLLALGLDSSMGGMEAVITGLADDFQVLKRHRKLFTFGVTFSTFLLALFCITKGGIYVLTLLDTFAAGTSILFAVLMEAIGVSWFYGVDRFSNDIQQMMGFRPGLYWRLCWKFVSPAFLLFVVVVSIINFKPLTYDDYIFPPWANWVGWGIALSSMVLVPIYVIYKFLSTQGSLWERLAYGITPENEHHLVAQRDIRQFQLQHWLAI

Row | Structure (SMILES) | hNet Binding Potency [1, 9] | DA (Rat) Reuptake Inhibition Potency [2] | hDAT Binding Potency [3] | Simultaneous Reuptake Inhibition Potency [4] | Simultaneous Reuptake Inhibition Potency (Rat) [4, 10] | Simultaneous Transporter Binding Potency (hSERT, hNET, and hDAT) | Simultaneous Transporter Binding Potency (Human) (hSERT, hNET, and hDAT) | simultaneous reuptake inhibition potency, in words [4] | block uptake of all three neurotransmitters (5-HT, NE, and DA), Ki in words [4] | simultaneous transporter binding potency, in words (hSERT, hNET, and hDAT) | hSert Binding Potency [7, 12] | Simultaneous Reuptake Inhibition Potency (Rat) [4] | further results
1 | COc1ccc([C@H](CN(C)C)[C@@H](O)C2CCCCC2)cc1.Cl (racemic) [Compound E, (2RS,3SR)-3-Cyclohexyl-3-hydroxy-2-(4'-methoxyphenyl)-propyl-N,N-dimethylammonium chloride] | 1.24 | 0.10 | 0.69 | no | no | no | no | – | – | – | – | – | NE (Rat) Reuptake Inhibition Potency [5, 11]: 0.54; 5-HT (Rat) Reuptake Inhibition Potency [6]: 0.62; hSert Binding Potency [7]: 70
2 | CN(C)C[C@H](c1ccc2ccccc2c1)[C@H](O)C(C)(C)C (relative stereo) [Compound A, (2RS,3RS)-3-Hydroxy-4,4-dimethyl-2-(2'-naphthyl)pentyl-N, N-dimethyl-ammonium chloride] | 73.6 | 1.11 | 7.16 | yes (A compound or drug is considered to possess simultaneous reuptake inhibition potency if each of the potency values is greater than 1.0.) | yes (A compound or drug is considered to possess simultaneous reuptake inhibition potency if each of the potency values is greater than 1.0.) | yes (A compound or drug is considered to possess "simultaneous transporter binding potency" if each of the potency values is greater than 7.0.) | yes (A compound or drug is considered to possess "simultaneous transporter binding potency" if each of the potency values is greater than 7.0.) | possess the quality of "simultaneous reuptake inhibition potency" | nanomolar to 10 nanomolar range | qualify for simultaneous transporter binding potency | 1,750 | – | Ki ([2]; rat brain synaptosomes): 60 ± 10 nM; reuptake inhibition of all three neurotransmitters in both the rat and human models, in words [4]: potently inhibit reuptake of all three neurotransmitters in both the rat and human models; NE (Rat) Reuptake Inhibition Potency [5, 11]: 12.0; Ki ([5]; rat brain synaptosomes): 10 ± 1 nM
3 | CN(C)C[C@H](c1ccc2ccccc2c1)[C@H](O)c1ccccc1 (relative stereo) [Compound B, (2RS,3RS)-3-Hydroxy-2-(2'-naphthyl)-3-phenylpropyl-N, N-dimethylammonium chloride] | – | – | 34.3 | yes (A compound or drug is considered to possess simultaneous reuptake inhibition potency if each of the potency values is greater than 1.0.) | yes (A compound or drug is considered to possess simultaneous reuptake inhibition potency if each of the potency values is greater than 1.0.) | yes (A compound or drug is considered to possess "simultaneous transporter binding potency" if each of the potency values is greater than 7.0.) | yes (A compound or drug is considered to possess "simultaneous transporter binding potency" if each of the potency values is greater than 7.0.) | possess the quality of "simultaneous reuptake inhibition potency" | nanomolar to 10 nanomolar range | qualify for simultaneous transporter binding potency | – | – | reuptake inhibition of all three neurotransmitters in both the rat and human models, in words [4]: potently inhibit reuptake of all three neurotransmitters in both the rat and human models; simultaneous transporter binding potency, tightened criterion (hSERT, hNET, and hDAT; all potency values must be greater than 30): still qualifies; hSert Binding Potency [7]: 376
4 | CC(C)(C)[C@@H](O)[C@H](CN)c1ccc2ccccc2c1 (relative stereo) [Compound C, (2RS,3RS)-3-hydroxy-4,4-dimethyl-2-(2'-naphthyl)pentyl-ammonium chloride] | 39.9 | 0.57 | 0.09 | no | no | no | no | – | – | – | 347 | – | –
5 | NC[C@H](c1ccc2ccccc2c1)[C@H](O)c1ccccc1 (relative stereo) [Compound D, (2RS,3RS)-3-Hydroxy-2-(2'-naphthyl)-3-phenyl-propylammoni um chloride] | – | – | 16.8 | no | no | yes (A compound or drug is considered to possess "simultaneous transporter binding potency" if each of the potency values is greater than 7.0.) | yes (A compound or drug is considered to possess "simultaneous transporter binding potency" if each of the potency values is greater than 7.0.) | narrowly misses the criterion for simultaneous reuptake inhibition potency | nanomolar to 10 nanomolar range | qualify for simultaneous transporter binding potency; also recorded: meets the criterion for simultaneous transporter binding potency | 340 | – | 5-HT (Rat) Reuptake Inhibition Potency [6]: 0.68
6 | COc1ccc(C(CN(C)C)C2(O)CCCCC2)cc1 (centres unmarked) [Effexor ®, reference compound] | – | 0.18 | – | no | – | – | – | – | – | – | – | no | –
7 | Fc1ccc([C@@H]2CCNC[C@H]2COc2ccc3c(c2)OCO3)cc1 [Paxil ®, reference compound] | – | – | – | no | – | – | – | – | – | – | – | no | hNet Binding Potency [1]: 55; NE (Rat) Reuptake Inhibition Potency [5]: 3.61; Ki [8]: 33 ± 2 nM
8 | CNCCC(Oc1ccc(C(F)(F)F)cc1)c1ccccc1 (centres unmarked) [Prozac ®, reference compound] | – | 0.02 | – | no | – | – | – | – | – | – | – | no | –
9 | CCc1nn(CCCN2CCN(c3cccc(Cl)c3)CC2)c(=O)n1CCOc1ccccc1 [Serzone ®, reference compound] | – | 0.03 | – | – | – | – | – | – | – | – | – | – | Simultaneous Reuptake Inhibition Potency ([4]; Table 2, each of the potency values greater than 1.0): no
10 | CNCC[C@@H](Oc1ccccc1C)c1ccccc1 [Tomoxetine, reference compound] | – | – | – | no | – | – | – | – | – | – | – | – | –
